In patent publication US8927500B2, “Peptidomimetic macrocycles” (Aileron Therapeutics, Inc., priority 2012, dated 2015):
Read-outs that look alike come from different tables or passages of the source. Where a SMILES comes first, the peptide text is derived from it. Bridges are numbered along the chain shown (N, C = ends). [ ]: non-standard residue; d: D form. The star is where a group is joined. Phe(4-guanidino) = N=C(N)Nc1ccc(C[C@H](N)C(=O)O)cc1; Gla = N[C@@H](CC(C(=O)O)C(=O)O)C(=O)O; Benzoyl(4-F) = O=C(c1ccc(F)cc1)*; R8 = C=CCCCCCC[C@@](C)(N)C(=O)O; Cba = N[C@@H](CC1CCC1)C(=O)O; S5 = C=CCCC[C@](C)(N)C(=O)O; Aib = CC(C)(N)C(=O)O; Sar = CNCC(=O)O

Tests used:
MDMX = biological target: T1, MDMX (Homo sapiens, UniProt O15151); experiment: Competitive fluorescence polarization assay for MDMX; type: binding; conditions: competitive FP assay
T1 sequence (O15151 1-125): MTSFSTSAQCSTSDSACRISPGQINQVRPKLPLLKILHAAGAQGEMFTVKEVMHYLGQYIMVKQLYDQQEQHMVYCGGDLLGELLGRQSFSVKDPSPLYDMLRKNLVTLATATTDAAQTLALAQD
Method: Dilute MDMX (In-house, 40 kD) into FP buffer (High salt buffer-200 mM Nacl, 5 mM CHAPS, pH 7.5.) to make 300 nM (2×) working stock solution. • 2. […] Dilute 1 mM (in 100% DMSO) of FAM labeled linear peptide with DMSO to 100 μM (dilution 1:10). Then, dilute from 100 μM to 10 μM with water (dilution 1:10) and then dilute with FP buffer from 10 μM to 40 nM (dilution 1:250). This is the working solution which will be a 10 nM concentration in well (dilution 1:4). Keep the diluted FAM labeled peptide in the dark until use. • 4. […] Dilute 10 mM (in 100% DMSO) with DMSO to 5 mM (dilution 1:2). Then, dilute from 5 mM to 500 μM with H2O (dilution 1:10) and then dilute with FP buffer from 500 μM to 20 μM (dilution 1:25). […] Transfer 10 μl of serial diluted unlabeled peptides to each well which is filled with 20 μl of 300 nM of protein. • 7. Add 10 μl of 10 nM (4×) of FAM labeled peptide into each well and incubate for 3 hr to read.

MDM2 = MDM2 (Homo sapiens, UniProt Q00987); experiment: Competitive fluorescence polarization assay for MDM2; type: binding; conditions: competitive FP assay, MDM2
MDM2, sequence (Q00987 1-125): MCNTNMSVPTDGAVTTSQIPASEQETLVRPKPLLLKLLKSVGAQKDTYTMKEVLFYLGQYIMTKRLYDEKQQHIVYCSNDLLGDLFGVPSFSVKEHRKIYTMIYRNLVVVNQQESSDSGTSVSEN
Method: Dilute 1 mM (in 100% DMSO) of FAM labeled linear peptide with DMSO to 100 μM (dilution 1:10). Then, dilute from 100 μM to 10 μM with water (dilution 1:10) and then dilute with FP buffer from 10 μM to 40 nM (dilution 1:250). This is the working solution which will be a 10 nM concentration in well (dilution 1:4). […] Then, dilute from 5 mM to 500 μM with H2O (dilution 1:10) and then dilute with FP buffer from 500 μM to 20 μM (dilution 1:25).
Dilute 1 mM (in 100% DMSO) of FAM labeled linear peptide with DMSO to 100 μM (dilution 1:10). Then, dilute from 100 μM to 10 μM with water (dilution 1:10) and then dilute with FP buffer from 10 μM to 40 nM (dilution 1:250). This is the working solution which will be a 10 nM concentration in well (dilution 1:4). […] Dilute 10 mM (in 100% DMSO) with DMSO to 5 mM (dilution 1:2). Then, dilute from 5 mM to 500 μM with H2O (dilution 1:10) and then dilute with FP buffer from 500 μM to 20 μM (dilution 1:25). […] Transfer 10 μl of serial diluted unlabeled peptides to each well which is filled with 20 μl of 300 nM of protein. • 7. Add 10 μl of 10 nM (4×) of FAM labeled peptide into each well and incubate for 3 hr to read.

| SMILES | Ki (MDMX; read-out: Ki (MDMX)) [nM] | Ki (MDM2; read-out: Ki (MDM2)) [nM] | Ki (MDMX; Ki (MDMX)) [nM] | Ki (MDM2; Ki (MDM2)) [nM] |
| --- | --- | --- | --- | --- |
| CC(=O)N[C@@H](CC(C)C)C(=O)N[C@H](C(=O)N[C@@H](Cc1ccccc1)C(=O)N[C@]1(C)CCCCCC/C=C/CCC[C@@](C)(C(=O)N[C@@H](C)C(=O)NC(C)(C)C(=O)N[C@@H](C)C(=O)N[C@@H](C)C(=O)N[C@@H](C)C(=O)N[C@H](C)C(N)=O)NC(=O)[C@H](CC(C)C)NC(=O)[C@H](CCC(N)=O)NC(=O)[C@H](C)NC(=O)[C@H](Cc2c[nH]c3ccccc23)NC(=O)[C@H](Cc2ccc(O)cc2)NC(=O)[C@H](CCC(=O)O)NC1=O)[C@@H](C)O [compound 562] (Ac-LTF[R8]EYWAQL[S5]A[Aib]AAA[dA]-NH2; staple (E) 4-11) | 10 to 100 | 10 to 100 |  |  |
| CC(=O)N[C@@H](CC(C)C)C(=O)N[C@H](C(=O)N[C@@H](Cc1ccccc1)C(=O)N[C@]1(C)CCCCCCC=CCCC[C@@](C)(C(=O)N[C@@H](C)C(=O)N[C@@H](C)C(=O)NC(C)(C)C(=O)N[C@@H](C)C(=O)N[C@@H](C)C(=O)N[C@H](C)C(N)=O)NC(=O)[C@H](CC(C)C)NC(=O)[C@H](CCC(N)=O)NC(=O)[C@H](C)NC(=O)[C@H](Cc2c[nH]c3ccccc23)NC(=O)[C@H](Cc2ccc(O)cc2)NC(=O)[C@H](CCC(=O)O)NC1=O)[C@@H](C)O [compound 563] (Ac-LTF[R8]EYWAQL[S5]AA[Aib]AA[dA]-NH2; staple 4-11) | 10 to 100 | 10 to 100 |  |  |
| CC(=O)N[C@@H](CC(C)C)C(=O)N[C@H](C(=O)N[C@@H](Cc1ccccc1)C(=O)N[C@]1(C)CCCCCCC=CCCC[C@@](C)(C(=O)N[C@@H](C)C(=O)N(C)CC(=O)N[C@@H](C)C(=O)N[C@@H](C)C(=O)N[C@@H](C)C(=O)N[C@H](C)C(N)=O)NC(=O)[C@H](CC(C)C)NC(=O)[C@H](CCC(N)=O)NC(=O)[C@H](C)NC(=O)[C@H](Cc2c[nH]c3ccccc23)NC(=O)[C@H](Cc2ccc(O)cc2)NC(=O)[C@H](CCC(=O)O)NC1=O)[C@@H](C)O [compound 574] (Ac-LTF[R8]EYWAQL[S5]A[Sar]AAA[dA]-NH2; staple 4-11) | 10 to 100 | < 10 |  |  |
| CC(=O)N[C@@H](CC(C)C)C(=O)N[C@H](C(=O)N[C@@H](Cc1ccccc1)C(=O)N[C@]1(C)CCCCCCC=CCCC[C@@](C)(C(=O)N[C@@H](C)C(=O)N[C@@H](C)C(=O)N(C)CC(=O)N[C@@H](C)C(=O)N[C@@H](C)C(=O)N[C@H](C)C(N)=O)NC(=O)[C@H](CC(C)C)NC(=O)[C@H](CCC(N)=O)NC(=O)[C@H](C)NC(=O)[C@H](Cc2c[nH]c3ccccc23)NC(=O)[C@H](Cc2ccc(O)cc2)NC(=O)[C@H](CCC(=O)O)NC1=O)[C@@H](C)O [compound 575] (Ac-LTF[R8]EYWAQL[S5]AA[Sar]AA[dA]-NH2; staple 4-11) | 10 to 100 | < 10 |  |  |
| CC(=O)N[C@@H](CC(C)C)C(=O)N[C@H](C(=O)N[C@@H](Cc1ccccc1)C(=O)N[C@]1(C)CCCCCCC=CCCC[C@@](C)(C(=O)N[C@@H](C)C(=O)N[C@@H](C)C(=O)N[C@@H](C)C(=O)N(C)CC(=O)N[C@@H](C)C(=O)N[C@H](C)C(N)=O)NC(=O)[C@H](CC(C)C)NC(=O)[C@H](CCC(N)=O)NC(=O)[C@H](C)NC(=O)[C@H](Cc2c[nH]c3ccccc23)NC(=O)[C@H](Cc2ccc(O)cc2)NC(=O)[C@H](CCC(=O)O)NC1=O)[C@@H](C)O [compound 576] (Ac-LTF[R8]EYWAQL[S5]AAA[Sar]A[dA]-NH2; staple 4-11) | 10 to 100 | < 10 |  |  |
| CC(=O)N[C@@H](CC(C)C)C(=O)N[C@H](C(=O)N[C@@H](Cc1ccccc1)C(=O)N[C@]1(C)CCCCCCC=CCCC[C@@](C)(C(=O)N[C@@H](C)C(=O)N[C@@H](C)C(=O)N[C@@H](C)C(=O)N[C@@H](C)C(=O)N(C)CC(=O)N[C@H](C)C(N)=O)NC(=O)[C@H](CC(C)C)NC(=O)[C@H](CCC(N)=O)NC(=O)[C@H](C)NC(=O)[C@H](Cc2c[nH]c3ccccc23)NC(=O)[C@H](Cc2ccc(O)cc2)NC(=O)[C@H](CCC(=O)O)NC1=O)[C@@H](C)O [compound 577] (Ac-LTF[R8]EYWAQL[S5]AAAA[Sar][dA]-NH2; staple 4-11) | 10 to 100 | < 10 |  |  |
| CC(=O)N[C@@H](CC(C)C)C(=O)N[C@H](C(=O)N[C@@H](Cc1ccccc1)C(=O)N[C@]1(C)CCCCCCC=CCCC[C@@](C)(C(=O)N[C@@H](C)C(=O)N[C@@H](C)C(=O)N[C@@H](C)C(=O)N[C@@H](C)C(=O)N[C@H](C)C(N)=O)NC(=O)[C@H](CC(C)C)NC(=O)[C@H](CCC(N)=O)NC(=O)[C@H](C)NC(=O)[C@H](Cc2c[nH]c3ccccc23)NC(=O)[C@H](Cc2ccc(O)cc2)NC(=O)[C@H](CCC(=O)O)NC1=O)[C@@H](C)O [compound 585] (Ac-LTF[R8]EYWAQL[S5]AAAA[dA]-NH2; staple 4-11) | 10 to 100 | 10 to 100 |  |  |
| CC(=O)N[C@@H](CC(C)C)C(=O)N[C@H](C(=O)N[C@@H](Cc1ccccc1)C(=O)N[C@]1(C)CCCCCCC=CCCC[C@@](C)(C(=O)N[C@@H](C)C(=O)N[C@@H](C)C(=O)N[C@@H](C)C(=O)N[C@H](C)C(N)=O)NC(=O)[C@H](CC(C)C)NC(=O)[C@H](CCC(N)=O)NC(=O)[C@H](C)NC(=O)[C@H](Cc2c[nH]c3ccccc23)NC(=O)[C@H](Cc2ccc(O)cc2)NC(=O)[C@H](CCC(=O)O)NC1=O)[C@@H](C)O [compound 586] (Ac-LTF[R8]EYWAQL[S5]AAA[dA]-NH2; staple 4-11) | 10 to 100 | < 10 |  |  |
| CC(=O)N[C@@H](CC(C)C)C(=O)N[C@H](C(=O)N[C@@H](Cc1ccccc1)C(=O)N[C@]1(C)CCCCCCC=CCCC[C@@](C)(C(=O)N[C@@H](C)C(=O)N[C@@H](C)C(=O)N[C@H](C)C(N)=O)NC(=O)[C@H](CC(C)C)NC(=O)[C@H](CCC(N)=O)NC(=O)[C@H](C)NC(=O)[C@H](Cc2c[nH]c3ccccc23)NC(=O)[C@H](Cc2ccc(O)cc2)NC(=O)[C@H](CCC(=O)O)NC1=O)[C@@H](C)O [compound 587] (Ac-LTF[R8]EYWAQL[S5]AA[dA]-NH2; staple 4-11) | < 10 | < 10 |  |  |
| CC(=O)N[C@@H](CC(C)C)C(=O)N[C@H](C(=O)N[C@@H](Cc1ccccc1)C(=O)N[C@]1(C)CCCCCCC=CCCC[C@@](C)(C(=O)N[C@@H](CO)C(=O)O)NC(=O)[C@H](CC2CCC2)NC(=O)[C@H](CCC(N)=O)NC(=O)[C@H](C)NC(=O)[C@H](Cc2c[nH]c3ccccc23)NC(=O)[C@H](Cc2ccc(O)cc2)NC(=O)[C@H](CCC(=O)O)NC1=O)[C@@H](C)O [compound 594] (Ac-LTF[R8]EYWAQ[Cba][S5]S-OH; staple 4-11) | < 10 | < 10 |  |  |
| CC(C)C[C@H](NC(=O)c1ccc(F)cc1)C(=O)N[C@H](C(=O)N[C@@H](Cc1ccccc1)C(=O)N[C@]1(C)CCCCCCC=CCCC[C@@](C)(C(=O)N[C@@H](C)C(=O)N[C@@H](C)C(=O)N[C@@H](C)C(=O)N[C@@H](C)C(=O)N[C@@H](C)C(=O)N[C@H](C)C(N)=O)NC(=O)[C@H](CC(C)C)NC(=O)[C@H](CCC(N)=O)NC(=O)[C@H](C)NC(=O)[C@H](Cc2c[nH]c3ccccc23)NC(=O)[C@H](Cc2ccc(O)cc2)NC(=O)[C@H](CCC(=O)O)NC1=O)[C@@H](C)O [compound 596] ({Benzoyl(4-F)}-LTF[R8]EYWAQL[S5]AAAAA[dA]-NH2; staple 4-11) |  |  | 10 to 100 | < 10 |
| CC(=O)N[C@@H](CC(C)C)C(=O)N[C@H](C(=O)N[C@@H](Cc1ccccc1)C(=O)N[C@]1(C)CCCCCCC=CCCC[C@@](C)(C(=O)N[C@@H](C)C(=O)N[C@@H](C)C(=O)N[C@@H](C)C(=O)N[C@@H](C)C(=O)N[C@@H](C)C(=O)N[C@H](C)C(N)=O)NC(=O)[C@H](CC(C)C)NC(=O)[C@H](CCC(N)=O)NC(=O)[C@H](C)NC(=O)[C@H](Cc2c[nH]c3ccccc23)NC(=O)[C@H](Cc2ccc(O)cc2)NC(=O)[C@H](CCCNC(=N)N)NC1=O)[C@@H](C)O [compound 598] (Ac-LTF[R8]RYWAQL[S5]AAAAA[dA]-NH2; staple 4-11) |  |  | 10 to 100 | < 10 |
| CC(=O)N[C@@H](CC(C)C)C(=O)N[C@H](C(=O)N[C@@H](Cc1ccccc1)C(=O)N[C@]1(C)CCCCCCC=CCCC[C@@](C)(C(=O)N[C@@H](C)C(=O)N[C@@H](C)C(=O)N[C@@H](C)C(=O)N[C@@H](C)C(=O)N[C@@H](C)C(=O)N[C@H](C)C(N)=O)NC(=O)[C@H](CC(C)C)NC(=O)[C@H](CCC(N)=O)NC(=O)[C@H](C)NC(=O)[C@H](Cc2c[nH]c3ccccc23)NC(=O)[C@H](Cc2ccc(O)cc2)NC(=O)[C@H](CCC(N)=O)NC1=O)[C@@H](C)O [compound 600] (Ac-LTF[R8]QYWAQL[S5]AAAAA[dA]-NH2; staple 4-11) |  |  | < 10 | < 10 |
| CC(=O)N[C@@H](CC(C)C)C(=O)N[C@H](C(=O)N[C@@H](Cc1ccccc1)C(=O)N[C@]1(C)CCCCCCC=CCCC[C@@](C)(C(=O)N[C@@H](C)C(=O)N[C@@H](C)C(=O)N[C@@H](C)C(=O)N[C@@H](C)C(=O)N[C@@H](C)C(=O)N[C@H](C)C(N)=O)NC(=O)[C@H](CC(C)C)NC(=O)[C@H](CCC(N)=O)NC(=O)[C@H](C)NC(=O)[C@H](Cc2c[nH]c3ccccc23)NC(=O)[C@H](Cc2ccc(O)cc2)NC(=O)[C@H](CC(C(=O)O)C(=O)O)NC1=O)[C@@H](C)O [compound 602] (Ac-LTF[R8][Gla]YWAQL[S5]AAAAA[dA]-NH2; staple 4-11) |  |  | < 10 | < 10 |
| CC(=O)N[C@@H](CC(C)C)C(=O)N[C@H](C(=O)N[C@@H](Cc1ccccc1)C(=O)N[C@]1(C)CCCCCCC=CCCC[C@@](C)(C(=O)N[C@@H](C)C(=O)N[C@@H](C)C(=O)N[C@@H](C)C(=O)N[C@@H](C)C(=O)N[C@@H](C)C(=O)N[C@H](C)C(N)=O)NC(=O)[C@H](CC(C)C)NC(=O)[C@H](CCC(N)=O)NC(=O)[C@H](C)NC(=O)[C@H](Cc2c[nH]c3ccccc23)NC(=O)[C@H](Cc2ccc(O)cc2)NC(=O)[C@H](Cc2ccc(NC(=N)N)cc2)NC1=O)[C@@H](C)O [compound 603] (Ac-LTF[R8][Phe(4-guanidino)]YWAQL[S5]AAAAA[dA]-NH2; staple 4-11) |  |  | < 10 | < 10 |
